In PubChem BioAssay (NCI):
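All cell lines were grown in 96-well plates and treated with compound for 48 hours. At the GI50, growth is halved. TGI denotes the concentration required for complete inhibition of growth.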

What was measured:
Assay in all cases: growth of human tumour cells (NCI), 48 h; in the data active = GI50 below about 0.43 µM; inactive = the rest
HCT-116 colon = test system: HCT-116 colon
HS 578T breast = test system: HS 578T breast
HT29 colon = test system: HT29 colon
T-47D breast = test system: T-47D breast
A549 NSCLC = test system: A549 NSCLC
SF-268 CNS = test system: SF-268 CNS
ACHN renal = test system: ACHN renal
MOLT-4 leukemia = test system: MOLT-4 leukemia
SK-MEL-5 melanoma = test system: SK-MEL-5 melanoma
HCC-2998 colon = test system: HCC-2998 colon
HL-60(TB) leukemia = test system: HL-60(TB) leukemia
NCI-H23 lung = test system: NCI-H23 lung
UACC-62 melanoma = test system: UACC-62 melanoma
M14 melanoma = test system: M14 melanoma
TK-10 renal = test system: TK-10 renal
KM12 colon = test system: KM12 colon
K-562 leukemia = test system: K-562 leukemia
LOX IMVI melanoma = test system: LOX IMVI melanoma
OVCAR-4 ovarian = test system: OVCAR-4 ovarian
HOP-92 NSCLC = test system: HOP-92 NSCLC
RPMI-8226 leukemia = test system: RPMI-8226 leukemia
BT-549 breast = test system: BT-549 breast
EKVX NSCLC = test system: EKVX NSCLC
NCI-H522 lung = test system: NCI-H522 lung
SK-MEL-28 melanoma = test system: SK-MEL-28 melanoma
IGROV1 ovarian = test system: IGROV1 ovarian
SR leukemia = test system: SR leukemia
OVCAR-5 ovarian = test system: OVCAR-5 ovarian
SF-539 CNS = test system: SF-539 CNS
SW-620 colon = test system: SW-620 colon
U251 CNS = test system: U251 CNS
DU-145 prostate = test system: DU-145 prostate
SK-MEL-2 melanoma = test system: SK-MEL-2 melanoma
NCI-H460 lung = test system: NCI-H460 lung
SNB-75 CNS = test system: SNB-75 CNS
HOP-62 NSCLC = test system: HOP-62 NSCLC
A498 renal = test system: A498 renal
HCT-15 colon = test system: HCT-15 colon
OVCAR-3 ovarian = test system: OVCAR-3 ovarian
MCF7 breast = test system: MCF7 breast
SF-295 CNS = test system: SF-295 CNS
SK-OV-3 ovarian = test system: SK-OV-3 ovarian
CAKI-1 renal = test system: CAKI-1 renal
MDA-MB-231 breast = test system: MDA-MB-231 breast
OVCAR-8 ovarian = test system: OVCAR-8 ovarian
MALME-3M melanoma = test system: MALME-3M melanoma
PC-3 prostate = test system: PC-3 prostate
NCI-H226 lung = test system: NCI-H226 lung
MDA-MB-435 = test system: MDA-MB-435
RXF 393 renal = test system: RXF 393 renal
UACC-257 melanoma = test system: UACC-257 melanoma
NCI/ADR-RES ovarian = test system: NCI/ADR-RES ovarian
UO-31 renal = test system: UO-31 renal
COLO 205 colon = test system: COLO 205 colon
786-0 renal = test system: 786-0 renal
SN12C renal = test system: SN12C renal
CCRF-CEM leukemia = test system: CCRF-CEM leukemia
SNB-19 CNS = test system: SNB-19 CNS

COc1cccc(-n2ncc3c(N/N=C/c4cccc(F)c4)ncnc32)c1
13.5 µM: TGI (OVCAR-4 ovarian)
12.7 µM: TGI (RXF 393 renal)
> 25 µM: TGI (HT29 colon) | TGI (MOLT-4 leukemia) | TGI (SK-MEL-5 melanoma) | TGI (HCC-2998 colon) | TGI (HL-60(TB) leukemia) | TGI (NCI-H23 lung) | TGI (UACC-62 melanoma) | TGI (M14 melanoma) | TGI (KM12 colon) | TGI (K-562 leukemia) | TGI (LOX IMVI melanoma) | TGI (RPMI-8226 leukemia) | TGI (BT-549 breast) | TGI (EKVX NSCLC) | TGI (NCI-H522 lung) | TGI (SK-MEL-28 melanoma) | TGI (IGROV1 ovarian) | TGI (SR leukemia) | TGI (OVCAR-5 ovarian) | TGI (SF-539 CNS) | TGI (SW-620 colon) | TGI (SK-MEL-2 melanoma) | TGI (HCT-15 colon) | TGI (MCF7 breast) | TGI (MALME-3M melanoma) | TGI (PC-3 prostate) | TGI (MDA-MB-435) | TGI (UACC-257 melanoma) | TGI (NCI/ADR-RES ovarian) | TGI (CCRF-CEM leukemia) | TGI (SNB-19 CNS)
18.9 µM: TGI (TK-10 renal)
24.5 µM: TGI (NCI-H226 lung)
> 19.6 µM: TGI (SN12C renal)
11.3 µM: TGI (HCT-116 colon)
20.8 µM: TGI (786-0 renal)
15.6 µM: TGI (HS 578T breast) | TGI (MDA-MB-231 breast)
14.2 µM: TGI (HOP-92 NSCLC)
> 17.6 µM: TGI (SF-295 CNS)
24.6 µM: TGI (CAKI-1 renal)
11.4 µM: TGI (HOP-62 NSCLC)
> 22 µM: TGI (SF-268 CNS) | TGI (COLO 205 colon)
9.04 µM: TGI (U251 CNS)
11.2 µM: TGI (A498 renal)
> 24.1 µM: TGI (DU-145 prostate)
> 20.3 µM: TGI (ACHN renal)
18 µM: TGI (OVCAR-8 ovarian)
12.8 µM: TGI (NCI-H460 lung)
> 19.2 µM: TGI (T-47D breast)
12.4 µM: TGI (SNB-75 CNS)
inactive: GI50 (HCT-116 colon) 5.76 µM | GI50 (HS 578T breast) 6.02 µM | GI50 (HT29 colon) 12.9 µM | GI50 (T-47D breast) 6.41 µM | GI50 (A549 NSCLC) 4.94 µM | GI50 (SF-268 CNS) 8.46 µM | GI50 (ACHN renal) 7.54 µM | GI50 (MOLT-4 leukemia) > 25 µM | GI50 (SK-MEL-5 melanoma) 18.8 µM | GI50 (HCC-2998 colon) 20.3 µM | GI50 (HL-60(TB) leukemia) > 25 µM | GI50 (NCI-H23 lung) 11.3 µM | GI50 (UACC-62 melanoma) 11.1 µM | GI50 (M14 melanoma) 11.3 µM | GI50 (TK-10 renal) 6.93 µM | GI50 (KM12 colon) 14.7 µM | GI50 (K-562 leukemia) > 25 µM | GI50 (LOX IMVI melanoma) 9.44 µM | GI50 (OVCAR-4 ovarian) 6.28 µM | GI50 (HOP-92 NSCLC) 5.59 µM | GI50 (RPMI-8226 leukemia) > 25 µM | GI50 (BT-549 breast) 19.5 µM | GI50 (EKVX NSCLC) 10.2 µM | GI50 (NCI-H522 lung) > 15.6 µM | GI50 (SK-MEL-28 melanoma) 8.64 µM | GI50 (IGROV1 ovarian) 13.9 µM | GI50 (SR leukemia) 13.6 µM | GI50 (OVCAR-5 ovarian) > 23.2 µM | GI50 (SF-539 CNS) 12.5 µM | GI50 (SW-620 colon) 16.8 µM | GI50 (U251 CNS) 4.66 µM | GI50 (DU-145 prostate) 9.01 µM | GI50 (SK-MEL-2 melanoma) 12.3 µM | GI50 (NCI-H460 lung) 6.05 µM | GI50 (SNB-75 CNS) 5.05 µM | GI50 (HOP-62 NSCLC) 5.87 µM | GI50 (A498 renal) 5.13 µM | GI50 (HCT-15 colon) 14.9 µM | GI50 (OVCAR-3 ovarian) 5.42 µM | GI50 (MCF7 breast) > 14.6 µM | GI50 (SF-295 CNS) 8.19 µM | GI50 (SK-OV-3 ovarian) 4.8 µM | GI50 (CAKI-1 renal) 8.59 µM | GI50 (MDA-MB-231 breast) 5.78 µM | GI50 (OVCAR-8 ovarian) 7.16 µM | GI50 (MALME-3M melanoma) 7.96 µM | GI50 (PC-3 prostate) 9.86 µM | GI50 (NCI-H226 lung) 9.16 µM | GI50 (MDA-MB-435) 10.1 µM | GI50 (RXF 393 renal) 5.57 µM | GI50 (UACC-257 melanoma) 16.4 µM | GI50 (NCI/ADR-RES ovarian) 8.11 µM | GI50 (UO-31 renal) 6.73 µM | GI50 (COLO 205 colon) 8.06 µM | GI50 (786-0 renal) 7.31 µM | GI50 (SN12C renal) 6.74 µM | GI50 (CCRF-CEM leukemia) > 25 µM | GI50 (SNB-19 CNS) 12.3 µM
9.14 µM: TGI (SK-OV-3 ovarian)
10.6 µM: TGI (A549 NSCLC)
> 16.4 µM: TGI (UO-31 renal)
10.1 µM: TGI (OVCAR-3 ovarian)
